Reference: patent EP1770089A1, “Pyranodibenzofuran derivatives with antifungal and antibacterial activity” (priority 2005, dated 2007)
Values after ≈ are worked out from the molar mass of the structure shown. Like-named read-outs stand apart in the source and are kept apart here.

Key:
Candida albicans = assay: In vitro activity (MIC99) against Candida albicans; assay type: cell-based
Procedure: The antifungal activity of compounds 5, 9, and 11-22 against Candida albicans was analyzed by the measure of the MIC99 concentration (see Table 1). Table 1. In Vitro Activity against Candida albicans of pyranodibenzofuran derivatives

[1] = system: Mycobacterium smegmatis mc^2155; assay: Mycobacterial growth inhibition in liquid culture (MIC99); assay type: cell-based; conditions: Mycolicibacterium smegmatis, MC2155|MC^2155, 48 h; mc2155; two-day's growth at 37°C; 99% decrease vs DMSO control; read-out: MIC99 on M. smegmatis
[2] = system: Mycobacterium tuberculosis H37Rv; assay: Mycobacterial growth inhibition in liquid culture, CFU plating (MIC99); assay type: cell-based; conditions: Mycobacterium tuberculosis, H37RV; for MIC99: 504 h
M. tuberculosis H37Ra = assay: Growth inhibition in liquid culture, CFU plating (MIC99); assay type: cell-based; conditions: Mycobacterium tuberculosis
M. bovis BCG (Pasteur) = assay: microbe, parasite or virus in culture; assay type: cell-based; conditions: Mycobacterium tuberculosis variant bovis BCG
M. microti (MYC-942272) = assay: Growth inhibition in liquid culture, CFU plating (MIC99); assay type: cell-based
[3] = system: murine bone marrow macrophages infected by M. tuberculosis H37Rv; assay: Antibacterial activity on infected bone marrow macrophages (CFU count of lysates); assay type: cell-based
[4] = system: Mycobacterium tuberculosis H37Rv; design: species or system C57BL/6 and BalbC mice; conditions: mouse, in vivo
Pneumococcus pneumoniae = assay: Growth inhibition in liquid medium, CFU plating (MIC99); assay type: cell-based; conditions: Gram-positive
Corynebacterium jeikeium = assay: as above; assay type: cell-based; conditions: Actinomycetes
Procedure: (§1) To further assess its specificity, effect of compounds 9 and 16 was also assessed in vitro growth in liquid medium on a whole range of bacteria (Corynebacterium jeikeium, Escherichia coli, Enterococcus faecalis, Klebsiella oxytoca, Nocardia asteroides, Staphylococcus aureus, Pseudomonas aeruginosa and Streptomyces). Compounds were solubilized in dimethylsulfoxide (DMSO) and 100 µl of the appropriate dilution were added to a 5 ml culture with predetermined bacterium inoculum. Quantification of the bacteria was carried out by plating on appropriate agar serial 5-fold dilutions in medium, and colony forming units (CFUs) were ascertained after 24 to 48 hours according to the strains. Table 5. Antibacterial activity of compounds 9 and 16 on other bacteria

Enterococcus faecalis = assay: as above; assay type: cell-based; conditions: Gram-positive
Procedure: as §1

Escherichia coli = assay: as above; assay type: cell-based; conditions: Gram-negative
Procedure: as §1

Klebsiella oxytoca = assay: as above; assay type: cell-based; conditions: Gram-negative
Procedure: as §1

Nocardia asteroides = assay: as above; assay type: cell-based; conditions: Actinomycetes
Procedure: as §1

Pseudomonas aeruginosa = assay: as above; assay type: cell-based; conditions: Gram-negative
Procedure: as §1

Staphylococcus aureus = assay: as above; assay type: cell-based; conditions: Gram-positive
Procedure: as §1

Streptomyces Subspec = assay: as above; assay type: cell-based; conditions: Actinomycetes
Procedure: as §1

L1210 cells = assay: Cytotoxicity, MTA (Microculture Tetrazolium Assay) test; assay type: cell-based; conditions: Mus musculus, cytotoxicity on L1210 cells, read-out: IC50
Procedure: The cytotoxicity of compounds 5, 9, and 10-21 was determined in L1210 cells using the MTA (Microculture Tetrazolium Assay) test.

Macrophages = assay: Cytotoxicity, MTT test; assay type: cell-based; conditions: cytotoxicity on macrophages
Procedure: (§2) The cytotoxicity of compounds 9 and 16 was further assessed in various mammalian cell lines using the MTT test. RAW and A549 cell lines were maintained in RPMI 1640 medium without L-GLU supplemented with 10% Fetal calf serum (FCS), penicillin-streptomycin solution 1 % at 37 °C in air with 5 % CO2. VERO cell lines were maintained in D-MEM medium without L-GLU supplemented with 10% Fetal calf Serum (FCS), penicillin-streptomycin solution 1 % at 37 °C in air with 5 % CO2. Proliferating cells were seeded for 96-well microtitration plates at a density of 5. 10^5 cells/mL which were further incubated for 24 h at 37°C under 5 % CO2 in air before each assay. Various concentrations of solutions of 9 and 16 (10 µl/well) in 1.25 % dimethylsulfoxide (DMSO)) were added and then incubated for 24 hours under the above conditions. At the end of incubation, 20 µl of dimethylthiazolyl diphenyl tetrazolium bromide solution (MTT) (7.5 mg/ml) was then added into each well and further incubated for 4 h at 37°C to allow the formation of formazan. The crystals of formazan were then dissolved with 100 µl of an acidic solution (Sodium dodecyl sulfate (SDS) 10 %, HCl 10 mM). The optical density of each well was measured at 595 nm using a Multiwell plate reader. The values given are the average means of six replicates. The 50 % inhibition concentration was determined by curve fitting.

VERO cells = assay: Cytotoxicity, MTT test; assay type: cell-based; conditions: for IC50: cytotoxicity on VERO cells, MTT, 24 hours
Procedure: as §2

SMILES: CC1(C)C=Cc2c(ccc3oc4ccccc4c23)O1 [Compound 9, 3,3-dimethyl-3H-benzofuro[3,2-f][1]benzopyran]
- MIC99 (Candida albicans; Candida albicans, > 99 % inhibition of growth, read-out: MIC99 C. albicans): > 600 µg/mL
- MIC99 (Candida albicans; Fungus, Candida albicans (table of other bacteria), read-out: MIC99): > 600 µg/mL
- MIC99 [1]: 5 µg/mL (≈ 20 µM)
- MIC99 ([2]; H37Rv, three weeks growth in 7H9, CFU on 7H11, NI = no inhibition at 1 mg/mL, read-out: MIC99 on M. tuberculosis): 5 µg/mL (≈ 20 µM)
- MIC99 ([2]; M. tuberculosis H37Rv, three week growth in 7H9/OADC): < 5 µg/mL
- MIC ([2]; summary statement, read-out: MIC measured on M. tuberculosis): < 6.25 µg/mL
- MIC99 (M. tuberculosis H37Ra): 10 µg/mL (≈ 40 µM)
- MIC99 (M. bovis BCG (Pasteur)): 10 µg/mL (≈ 40 µM)
- MIC99 (M. microti (MYC-942272)): 1 µg/mL (≈ 4 µM)
- CFU ([3]; 5 µg/mL, 24 hours treatment, untreated control 4000 ± 1414): 3000 ± 816
- CFU ([3]; 5 µg/mL, 48 hours treatment, untreated control 17500 ± 12583): 2875 ± 250
- reduction of bacterial load ([3]; 10µg/mL at 24 hours): 60%
- CFU ([3]; 10 µg/mL, 24 hours treatment, untreated control 4000 ± 1414): 1500 ± 577
- CFU ([3]; 10 µg/mL, 48 hours treatment, untreated control 17500 ± 12583): 10000 ± 7360
- CFU ([3]; 50 µg/mL, 24 hours treatment, untreated control 4000 ± 1414): 1750 ± 1500
- CFU ([3]; 50 µg/mL, 48 hours treatment, untreated control 17500 ± 12583): 3800 ± 497
- bacteria detected at 30 days post infection (bacterial load, CFU) [4]: no bacteria was detected in 2 out of 3 mice
- MIC99 (Pneumococcus pneumoniae): > 500 µg/mL
- MIC99 (Corynebacterium jeikeium): > 150 µg/mL
- MIC99 (Enterococcus faecalis): > 500 µg/mL
- MIC99 (Escherichia coli): > 600 µg/mL
- MIC99 (Klebsiella oxytoca): > 600 µg/mL
- MIC99 (Nocardia asteroides): 12.8 µg/mL (≈ 51.1 µM)
- MIC99 (Pseudomonas aeruginosa): > 500 µg/mL
- MIC99 (Staphylococcus aureus): > 100 µg/mL
- MIC99 (Streptomyces Subspec): > 500 µg/mL
- IC50 (L1210 cells): > 14 µg/mL
- IC50 (Macrophages; Macrophage, 24 h, read-out: IC50): > 50 µg/mL
- IC50 (Macrophages; 24 hours): 80 µg/mL (≈ 320 µM)
- IC50 (VERO cells; Chlorocebus sabaeus, Vero, 24 h, read-out: IC50): > 50 µg/mL
- IC50 (VERO cells): 80 µg/mL (≈ 320 µM)
- Selectivity Index (VERO cells; summary statement, cell type not specified): above 10
